Laboratory results: patent US20090012103A1, “SUBSTITUTED HETEROCYCLIC COMPOUNDS” (priority 2007, published 2009)
Like-named read-outs stand apart in the source and are kept apart here.

Legend:
[1] = molecular target: wild-type human cardiac sodium channel, hNav1.5 (Homo sapiens, UniProt Q14524); test: Late INa screening assay (late sodium current, PatchXpress whole cell patch clamp); format: cell-based; settings: for inhibition at 10 µM: read-out: Late INa % blk
[2] = molecular target: hERG potassium channel (Homo sapiens, UniProt Q12809); test: hERG screening assay (PatchXpress patch clamp, CHO cell line)
hERG potassium channel, sequence (Q12809 whole entry): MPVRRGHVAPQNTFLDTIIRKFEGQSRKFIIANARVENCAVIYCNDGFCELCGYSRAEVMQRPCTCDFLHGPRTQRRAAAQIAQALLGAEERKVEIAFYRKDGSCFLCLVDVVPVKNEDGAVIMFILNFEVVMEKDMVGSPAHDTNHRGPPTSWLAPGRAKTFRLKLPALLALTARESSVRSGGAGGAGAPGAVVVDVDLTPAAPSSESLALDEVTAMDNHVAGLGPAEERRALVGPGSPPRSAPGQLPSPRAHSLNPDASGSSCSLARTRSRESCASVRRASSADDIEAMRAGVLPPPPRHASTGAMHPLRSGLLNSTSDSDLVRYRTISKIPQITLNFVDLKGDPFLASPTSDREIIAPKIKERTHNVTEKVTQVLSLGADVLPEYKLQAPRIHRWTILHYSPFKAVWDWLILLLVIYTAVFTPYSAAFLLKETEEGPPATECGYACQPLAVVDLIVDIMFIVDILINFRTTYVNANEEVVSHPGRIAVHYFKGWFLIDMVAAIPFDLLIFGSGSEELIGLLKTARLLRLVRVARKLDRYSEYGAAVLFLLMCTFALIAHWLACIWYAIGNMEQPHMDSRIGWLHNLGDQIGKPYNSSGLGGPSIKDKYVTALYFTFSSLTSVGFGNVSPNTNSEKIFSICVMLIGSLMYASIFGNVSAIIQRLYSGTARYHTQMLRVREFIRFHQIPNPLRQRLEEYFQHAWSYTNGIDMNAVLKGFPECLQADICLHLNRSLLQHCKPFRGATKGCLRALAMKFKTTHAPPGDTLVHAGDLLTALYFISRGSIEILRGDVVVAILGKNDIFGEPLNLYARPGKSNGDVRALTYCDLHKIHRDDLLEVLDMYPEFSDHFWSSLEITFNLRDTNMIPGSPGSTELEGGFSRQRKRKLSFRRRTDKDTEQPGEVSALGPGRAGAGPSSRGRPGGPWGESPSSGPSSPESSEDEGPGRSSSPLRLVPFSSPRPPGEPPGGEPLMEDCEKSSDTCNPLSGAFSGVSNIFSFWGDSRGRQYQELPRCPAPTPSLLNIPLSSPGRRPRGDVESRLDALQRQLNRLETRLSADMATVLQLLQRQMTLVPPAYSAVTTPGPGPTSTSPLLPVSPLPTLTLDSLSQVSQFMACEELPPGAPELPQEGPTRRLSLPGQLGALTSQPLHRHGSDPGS
Description: Compounds were screened to test their activity in blocking the hERG potassium channel. The hERG channel is heterologously expressed in a CHO (Chinese Hamster Ovary) cell line. Cells are maintained with standard tissue culture procedures and stable channel expression is maintained with 500 μg/ml G418 in the culture medium. Cells are harvested for testing on the PatchXpress automated patch clamp with Accumax (Innovative Cell Technologies, San Diego, Calif.) to isolate single cells.
The following solutions are used for electrophysiological recordings. The external solution contains: 2 mM CaCl2; 2 mM MgCl2; 4 mM KCl; 150 mM NaCl; 10 mM Glucose; 10 mM HEPES (pH 7.4 with 1M NaOH, osmolarity).
hERG channels are activated when the voltage is stepped to +20 mV from the −80 mV holding potential (see FIG. 3). During a 5 second step at +20 mV, the channels activate and then largely inactivate, so the currents are relatively small. Upon returning to −50 mV from +20 mV, hERG currents transiently become much larger as inactivation is rapidly removed and then the channel closes. The first step to −50 mV for 300 ms is used as a baseline for measuring the peak amplitude during the step to −50 mV after channel activation. The peak current at −50 mV is measured both under control conditions and after addition of compound.
All compounds are prepared as 10 mM DMSO stocks in glass vials. Stock solutions are mixed by vigorous vortexing and sonication for about 2 minutes at room temperature. For testing, compounds are diluted in glass vials using an intermediate dilution step in pure DMSO and then further diluted to working concentrations in external solution. Dilutions are prepared no longer than 20 minutes before use.
After achieving the whole-cell configuration, cells are monitored for 90 seconds to assess stability and washed with external solution for 66 seconds. The voltage protocol described above is then applied to the cells every 12 seconds and throughout the whole procedure. Only cells with stable recording parameters and meeting specified health criteria are allowed to enter the compound addition procedure.
External solution containing 0.1% DMSO (vehicle) is applied to the cells first to establish the control peak current amplitude. After allowing the current to stabilize for 3 to 5 minutes, 1 μM and then 10 μM test compounds are applied. Each compound concentration is added 4 times and cells are kept in test solution until the effect of the compound reaches steady state or for a maximum of 12 minutes. […] Washout in the external solution compartment is performed until the recovery of the current reaches steady state. Data are analyzed using DataXpress, Clampfit (Molecular Devices, Inc., Sunnyvale) and Origin 7 (Originlab Corp.)

wild-type human cardiac sodium channel, hNav1.5, sequence (Q14524 whole entry): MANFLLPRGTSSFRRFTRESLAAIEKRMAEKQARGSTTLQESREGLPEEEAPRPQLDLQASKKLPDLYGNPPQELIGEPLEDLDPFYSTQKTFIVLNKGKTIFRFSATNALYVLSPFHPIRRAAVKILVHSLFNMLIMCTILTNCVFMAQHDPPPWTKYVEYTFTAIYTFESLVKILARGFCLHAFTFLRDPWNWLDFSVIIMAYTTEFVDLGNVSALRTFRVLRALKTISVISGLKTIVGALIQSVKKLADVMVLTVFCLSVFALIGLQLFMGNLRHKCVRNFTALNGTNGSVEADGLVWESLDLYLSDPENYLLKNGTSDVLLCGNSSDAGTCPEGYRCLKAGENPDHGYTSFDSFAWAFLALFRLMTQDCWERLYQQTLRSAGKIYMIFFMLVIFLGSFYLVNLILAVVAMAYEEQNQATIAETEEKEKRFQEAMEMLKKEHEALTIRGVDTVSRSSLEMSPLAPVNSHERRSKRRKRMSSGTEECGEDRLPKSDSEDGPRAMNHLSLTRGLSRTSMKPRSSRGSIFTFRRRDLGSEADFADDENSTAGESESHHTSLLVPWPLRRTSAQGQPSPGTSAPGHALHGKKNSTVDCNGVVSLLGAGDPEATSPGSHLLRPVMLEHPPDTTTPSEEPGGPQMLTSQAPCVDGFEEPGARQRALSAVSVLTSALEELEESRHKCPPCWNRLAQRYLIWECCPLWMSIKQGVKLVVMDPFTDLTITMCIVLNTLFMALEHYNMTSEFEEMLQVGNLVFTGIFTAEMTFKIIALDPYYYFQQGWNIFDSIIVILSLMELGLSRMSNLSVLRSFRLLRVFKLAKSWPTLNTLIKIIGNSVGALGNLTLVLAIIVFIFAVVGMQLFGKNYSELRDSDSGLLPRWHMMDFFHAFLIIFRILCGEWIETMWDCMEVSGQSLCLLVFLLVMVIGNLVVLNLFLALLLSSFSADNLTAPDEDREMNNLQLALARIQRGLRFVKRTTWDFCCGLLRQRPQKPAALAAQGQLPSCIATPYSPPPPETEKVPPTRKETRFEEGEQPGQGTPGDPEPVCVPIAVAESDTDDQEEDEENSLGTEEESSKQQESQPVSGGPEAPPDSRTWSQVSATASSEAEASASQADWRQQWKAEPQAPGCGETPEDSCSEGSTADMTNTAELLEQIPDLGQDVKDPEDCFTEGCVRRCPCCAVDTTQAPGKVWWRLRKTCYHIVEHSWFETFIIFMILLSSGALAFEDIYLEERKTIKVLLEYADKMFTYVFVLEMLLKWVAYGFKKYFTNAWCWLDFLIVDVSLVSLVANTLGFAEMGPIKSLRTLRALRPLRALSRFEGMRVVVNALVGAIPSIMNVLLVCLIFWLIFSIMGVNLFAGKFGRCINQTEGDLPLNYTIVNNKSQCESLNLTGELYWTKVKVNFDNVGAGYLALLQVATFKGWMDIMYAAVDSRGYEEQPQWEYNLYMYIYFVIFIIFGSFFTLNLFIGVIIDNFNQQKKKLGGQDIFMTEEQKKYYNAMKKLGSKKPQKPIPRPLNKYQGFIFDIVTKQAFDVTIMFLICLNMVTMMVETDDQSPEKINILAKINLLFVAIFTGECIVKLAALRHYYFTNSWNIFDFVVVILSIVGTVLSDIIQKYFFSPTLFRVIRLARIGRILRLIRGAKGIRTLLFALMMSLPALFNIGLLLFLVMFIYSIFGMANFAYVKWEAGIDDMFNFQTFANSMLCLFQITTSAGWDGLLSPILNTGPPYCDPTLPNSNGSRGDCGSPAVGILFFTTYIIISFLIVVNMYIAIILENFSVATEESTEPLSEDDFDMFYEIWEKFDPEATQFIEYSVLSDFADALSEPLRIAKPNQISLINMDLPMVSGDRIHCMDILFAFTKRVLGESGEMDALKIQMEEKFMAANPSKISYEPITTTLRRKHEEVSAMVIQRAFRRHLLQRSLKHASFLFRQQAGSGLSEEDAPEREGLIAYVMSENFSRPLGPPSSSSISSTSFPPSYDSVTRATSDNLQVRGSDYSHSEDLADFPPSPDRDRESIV

CCOC(=O)C1=C(C)Nc2nnnn2C1c1ccccc1-n1ccnc1C.Cl (stereo not drawn) [PT-457, ethyl 5-methyl-7-(2-(2-methyl-1H-imidazol-1-yl)phenyl)-4,7-dihydrotetrazolo[1,5-a]pyrimidine-6-carboxylate hydrochloride]
inhibition at 10 µM ([1]; compound at 10 μM): 12.6%
hERG Patch Clamp hERG % blk ([2]; 1 μM): 10.0%
hERG Patch Clamp hERG % blk ([2]; 10 μM): 21.0%

CCCC1=C(C(=O)OCC)C(c2ccc(C(=O)O)cc2)C2=C(CC(C)(C)CC2=O)N1 (stereo not drawn) [PT-133, 4-(3-(ethoxycarbonyl)-7,7-dimethyl-5-oxo-2-propyl-1,4,5,6,7,8-hexahydroquinolin-4-yl)benzoic acid]
inhibition at 10 µM ([1]; compound at 10 μM): -27.5%
hERG Patch Clamp hERG % blk ([2]; 1 μM): 10.0%
hERG Patch Clamp hERG % blk ([2]; 10 μM): 12.0%

CCS(=O)(=O)N1CCN(c2cccc(OC)c2C2C(C(=O)OCc3ccccc3)=C(C)Nc3nnnn32)CC1 (stereo not drawn) [PT-378, benzyl 7-(2-(4-(ethylsulfonyl)piperazin-1-yl)-6-methoxyphenyl)-5-methyl-4,7-dihydrotetrazolo[1,5-a]pyrimidine-6-carboxylate]
inhibition at 10 µM ([1]; compound at 10 μM): 42%
hERG Patch Clamp hERG % blk ([2]; 1 μM): 10.0%
hERG Patch Clamp hERG % blk ([2]; 10 μM): 41.5%

CC1=C(C(=O)N2CCC(c3ccccc3)CC2)C(c2ccsc2)C2=C(CCCC2=O)N1 (stereo not drawn) [PT-163, 2-methyl-3-(4-phenylpiperidine-1-carbonyl)-4-(thiophen-3-yl)-4,6,7,8-tetrahydroquinolin-5(1H)-one]
effect on late sodium current ([1]; result in words): potentiated late sodium current
hERG Patch Clamp hERG % blk ([2]; 1 μM): 15.0%
hERG Patch Clamp hERG % blk ([2]; 10 μM): 53.5%

H-furo[3,4-e]pyrazolo[3,4-b]pyridin-5(4H)-one [PT-079]
Late INa % blk ([1]; compound at 10 μM): 49.0%
hERG Patch Clamp hERG % blk ([2]; 1 μM): 57.5%
hERG Patch Clamp hERG % blk ([2]; 10 μM): 96.5%

CCOC(=O)C1=C(C)NC2=C(C(=O)CCC2)C1c1ccnc2ccccc12 (stereo not drawn) [PT-190, ethyl 2-methyl-5-oxo-1,4,5,6,7,8-hexahydro-4,4′-biquinoline-3-carboxylate]
inhibition at 10 µM ([1]; compound at 10 μM): 4.2%
hERG Patch Clamp hERG % blk ([2]; 1 μM): 10.5%
hERG Patch Clamp hERG % blk ([2]; 10 μM): 32.0%

CC1=C(C(=O)OCc2ccc(Cn3cccn3)cc2)C(c2cccs2)n2nnnc2N1 (stereo not drawn) [PT-280, 4-((1H-pyrazol-1-yl)methyl)benzyl 5-methyl-7-(thiophen-2-yl)-4,7-dihydrotetrazolo[1,5-a]pyrimidine-6-carboxylate]
inhibition at 10 µM ([1]; compound at 10 μM): 45.9%
hERG Patch Clamp hERG % blk ([2]; 1 μM): 11.5%
hERG Patch Clamp hERG % blk ([2]; 10 μM): 48.0%

CCOC(=O)C1=C(CC)Nc2nnnn2C1c1cccc2ccccc12 (stereo not drawn) [PT-010, ethyl 5-ethyl-7-(naphthalen-1-yl)-4,7-dihydrotetrazolo[1,5-a]pyrimidine-6-carboxylate]
inhibition at 10 µM ([1]; compound at 10 μM): 36.1%
hERG Patch Clamp hERG % blk ([2]; 1 μM): 12.5%
hERG Patch Clamp hERG % blk ([2]; 10 μM): 30.0%

CC1=C(C(=O)OCc2ccccc2)C(c2ccccc2-c2ccc(C(=O)O)cc2)n2nnnc2N1 (stereo not drawn) [PT-254, 2′-(6-(benzyloxycarbonyl)-5-methyl-4,7-dihydrotetrazolo[1,5-a]pyrimidin-7-yl)biphenyl-4-carboxylic acid]
inhibition at 10 µM ([1]; compound at 10 μM): 10.7%
hERG Patch Clamp hERG % blk ([2]; 1 μM): 15.0%
hERG Patch Clamp hERG % blk ([2]; 10 μM): 20.0%

CC1=C(C(=O)OCc2ccccc2)C(c2ccc(N(C)C)cc2[N+](=O)[O-])n2nnnc2N1 (stereo not drawn) [PT-409, benzyl 7-(4-(dimethylamino)-2-nitrophenyl)-5-methyl-4,7-dihydrotetrazolo[1,5-a]pyrimidine-6-carboxylate]
inhibition at 10 µM ([1]; compound at 10 μM): 43.1%
hERG Patch Clamp hERG % blk ([2]; 1 μM): 27.0%
hERG Patch Clamp hERG % blk ([2]; 10 μM): 78.5%

CC1=C(C(=O)OCc2ccccc2)C(c2ccccc2-c2ccccc2)n2nnnc2N1 (stereo not drawn) [PT-025, benzyl 7-(biphenyl-2-yl)-5-methyl-4,7-dihydrotetrazolo[1,5-a]pyrimidine-6-carboxylate]
inhibition at 10 µM ([1]; compound at 10 μM): 78.8%
hERG Patch Clamp hERG % blk ([2]; 1 μM): 11.0%
hERG Patch Clamp hERG % blk ([2]; 10 μM): 53.0%

CCOC(=O)C1=C(C)Nc2[nH]ncc2C1c1ccccc1Br (stereo not drawn) [PT-448, ethyl 4-(2-bromophenyl)-6-methyl-4,7-dihydro-1H-pyrazolo[3,4-b]pyridine-5-carboxylate]
inhibition at 10 µM ([1]; compound at 10 μM): 33.6%
hERG Patch Clamp hERG % blk ([2]; 1 μM): 10.0%
hERG Patch Clamp hERG % blk ([2]; 10 μM): 57.5%

CCOC(=O)C1=C(C(C)C)NC(C(C)C)=C(C(=O)OCC)C1c1ccc(Br)s1 [PT-183, diethyl 4-(5-bromothiophen-2-yl)-2,6-diisopropyl-1,4-dihydropyridine-3,5-dicarboxylate]
inhibition at 10 µM ([1]; compound at 10 μM): 54%
hERG Patch Clamp hERG % blk ([2]; 1 μM): 10.0%
hERG Patch Clamp hERG % blk ([2]; 10 μM): 10.0%

CCOC(=O)C1=C(C)Nc2nnnn2C1c1sc2ccccc2c1C (stereo not drawn) [PT-018, ethyl 5-methyl-7-(3-methylbenzo[b]thiophen-2-yl)-4,7-dihydrotetrazolo[1,5-a]pyrimidine-6-carboxylate]
inhibition at 10 µM [1]: 36.5%
hERG Patch Clamp hERG % blk ([2]; 1 μM): 14.5%
hERG Patch Clamp hERG % blk ([2]; 10 μM): 36.5%

CC1=C(C(=O)OCc2ccccc2)C(c2nccs2)n2nnnc2N1 (stereo not drawn) [PT-364, benzyl 5-methyl-7-(thiazol-2-yl)-4,7-dihydrotetrazolo[1,5-a]pyrimidine-6-carboxylate]
inhibition at 10 µM ([1]; compound at 10 μM): 25.8%
hERG Patch Clamp hERG % blk ([2]; 1 μM): 10.0%
hERG Patch Clamp hERG % blk ([2]; 10 μM): 17.5%

N#CC1=C(N)NC2=C(C(=O)CCC2)C1c1ccc(Br)cc1 (stereo not drawn) [PT-095, 2-amino-4-(4-bromophenyl)-5-oxo-1,4,5,6,7,8-hexahydroquinoline-3-carbonitrile]
inhibition at 10 µM ([1]; compound at 10 μM): 4.9%
hERG Patch Clamp hERG % blk ([2]; 1 μM): 10.0%
hERG Patch Clamp hERG % blk ([2]; 10 μM): 24.5%

CCOC(=O)C1=C(C)NC(C)=C(C(=O)OCC)C1c1cccs1 [PT-111, diethyl 2,6-dimethyl-4-(thiophen-2-yl)-1,4-dihydropyridine-3,5-dicarboxylate]
inhibition at 10 µM ([1]; compound at 10 μM): 69.2%
hERG Patch Clamp hERG % blk ([2]; 1 μM): 11.5%
hERG Patch Clamp hERG % blk ([2]; 10 μM): 48.5%

CC1=C(C(=O)OCc2ccccc2)C(c2occc2-c2ccc(F)cc2)n2nnnc2N1 (stereo not drawn) [PT-396, benzyl 7-(3-(4-fluorophenyl)furan-2-yl)-5-methyl-4,7-dihydrotetrazolo[1,5-a]pyrimidine-6-carboxylate]
inhibition at 10 µM ([1]; compound at 10 μM): 80.7%
hERG Patch Clamp hERG % blk ([2]; 1 μM): 10.0%
hERG Patch Clamp hERG % blk ([2]; 10 μM): 32.0%

COC(=O)c1ccc(-c2n[nH]c3c2C(c2cccc4ccccc24)C2=C(COC2=O)N3)cc1 (stereo not drawn) [PT-085, methyl 4-(4-(naphthalen-1-yl)-5-oxo-4,5,7,8-tetrahydro-1H-furo[3,4-b]pyrazolo[4,3-e]pyridin-3-yl)benzoate]
inhibition at 10 µM ([1]; compound at 10 μM): 9.1%
hERG Patch Clamp hERG % blk ([2]; 1 μM): 34.0%
hERG Patch Clamp hERG % blk ([2]; 10 μM): 44.5%

COc1ccc(COC(=O)C2=C(C)Nc3nnnn3C2c2cccc3ccccc23)cc1OC (stereo not drawn) [PT-061, 3,4-dimethoxybenzyl 5-methyl-7-(naphthalen-1-yl)-4,7-dihydrotetrazolo[1,5-a]pyrimidine-6-carboxylate]
inhibition at 10 µM ([1]; compound at 10 μM): 37.3%
hERG Patch Clamp hERG % blk ([2]; 1 μM): 24.0%
hERG Patch Clamp hERG % blk ([2]; 10 μM): 46.5%

CC1=C(C(=O)OCc2ccccc2)C(c2sc3ccccc3c2C)n2nnnc2N1 (stereo not drawn) [PT-044, benzyl 5-methyl-7-(3-methylbenzo[b]thiophen-2-yl)-4,7-dihydrotetrazolo[1,5-a]pyrimidine-6-carboxylate]
inhibition at 10 µM ([1]; compound at 10 μM): 70.7%
hERG Patch Clamp hERG % blk ([2]; 1 μM): 16.5%
hERG Patch Clamp hERG % blk ([2]; 10 μM): 40.0%

CCOC(=O)C1=C(C)Nc2nccn2C1c1ccc2ccccc2c1 (stereo not drawn) [PT-086, ethyl 7-methyl-5-(naphthalen-2-yl)-5,8-dihydroimidazo[1,2-a]pyrimidine-6-carboxylate]
inhibition at 10 µM ([1]; compound at 10 μM): 38.8%
hERG Patch Clamp hERG % blk ([2]; 1 μM): 13.5%
hERG Patch Clamp hERG % blk ([2]; 10 μM): 57.5%

CC1=C(C(=O)OC(C)C)C(c2cccc3ccccc23)n2nnnc2N1 (stereo not drawn) [PT-021, isopropyl 5-methyl-7-(naphthalen-1-yl)-4,7-dihydrotetrazolo[1,5-a]pyrimidine-6-carboxylate]
inhibition at 10 µM ([1]; compound at 10 μM): 48.2%
hERG Patch Clamp hERG % blk ([2]; 1 μM): 13.0%
hERG Patch Clamp hERG % blk ([2]; 10 μM): 43.5%

CCOC(=O)C1=C(C)Nc2nnnn2C1c1ccccc1-n1ccnc1.Cl (stereo not drawn) [PT-476, ethyl 7-(2-(1H-imidazol-1-yl)phenyl)-5-methyl-4,7-dihydrotetrazolo[1,5-a]pyrimidine-6-carboxylate hydrochloride]
inhibition at 10 µM ([1]; compound at 10 μM): 2.6%
hERG Patch Clamp hERG % blk ([2]; 1 μM): 17.5%
hERG Patch Clamp hERG % blk ([2]; 10 μM): 23.0%

CCOC(=O)C1=C(C)Nc2[nH]nc(C)c2C1c1cccc2ccccc12 (stereo not drawn) [PT-074, ethyl 3,6-dimethyl-4-(naphthalen-1-yl)-4,7-dihydro-1H-pyrazolo[3,4-b]pyridine-5-carboxylate]
inhibition at 10 µM ([1]; compound at 10 μM): 27.7%
hERG Patch Clamp hERG % blk ([2]; 1 μM): 14.0%
hERG Patch Clamp hERG % blk ([2]; 10 μM): 43.0%

CCOC(=O)C1=C(C)Nc2nnnn2C1c1cc2ccccc2o1 (stereo not drawn) [PT-019, ethyl 7-(benzofuran-2-yl)-5-methyl-4,7-dihydrotetrazolo[1,5-a]pyrimidine-6-carboxylate]
inhibition at 10 µM ([1]; compound at 10 μM): 35.7%
hERG Patch Clamp hERG % blk ([2]; 1 μM): 10.0%
hERG Patch Clamp hERG % blk ([2]; 10 μM): 26.0%

CC1=C(C(=O)O[C@@H](C)c2ccccc2)[C@@H](c2cccc3ccccc23)n2nnnc2N1 [PT-050, (R)-((S)-1-phenylethyl) 5-methyl-7-(naphthalen-1-yl)-4,7-dihydrotetrazolo[1,5-a]pyrimidine-6-carboxylate]
inhibition at 10 µM ([1]; compound at 10 μM): 94%
hERG Patch Clamp hERG % blk ([2]; 1 μM): 10.0%
hERG Patch Clamp hERG % blk ([2]; 10 μM): 53.5%

COc1cc(Cl)ccc1COC(=O)C1=C(C)NC2=C(C(=O)CCC2)C1c1c(Cl)cccc1Cl (stereo not drawn) [PT-303, 4-chloro-2-methoxybenzyl 4-(2,6-dichlorophenyl)-2-methyl-5-oxo-1,4,5,6,7,8-hexahydroquinoline-3-carboxylate]
inhibition at 10 µM ([1]; compound at 10 μM): 59.9%
hERG Patch Clamp hERG % blk ([2]; 1 μM): 12.0%
hERG Patch Clamp hERG % blk ([2]; 10 μM): 30.5%

CC1=C(C(=O)OCc2ccccc2)C(c2ccccc2N2CCCCC2)n2nnnc2N1 (stereo not drawn) [PT-342, benzyl 5-methyl-7-(2-(piperidin-1-yl)phenyl)-4,7-dihydrotetrazolo[1,5-a]pyrimidine-6-carboxylate]
inhibition at 10 µM ([1]; compound at 10 μM): 80.1%
hERG Patch Clamp hERG % blk ([2]; 1 μM): 10.0%
hERG Patch Clamp hERG % blk ([2]; 10 μM): 47.5%
